Measurements reported in PubChem BioAssay (NCI).
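Compound exposure: 48 hours, 5 concentrations, 96-well plates. At the GI50, growth is halved. TGI: concentration producing complete growth inhibition.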

Legend:
Test in all cases: DTP human tumour cell line panel, 48 h
[1] = tested on: OVCAR-8 ovarian
[2] = tested on: KM12 colon
[3] = tested on: CAKI-1 renal
[4] = tested on: BT-549 breast
[5] = tested on: SN12C renal
[6] = tested on: SF-295 CNS
[7] = tested on: UACC-257 melanoma
[8] = tested on: NCI-H23 lung
[9] = tested on: LOX IMVI melanoma
[10] = tested on: SF-268 CNS
[11] = tested on: COLO 205 colon
[12] = tested on: RXF 393 renal
[13] = tested on: HT29 colon
[14] = tested on: SK-MEL-2 melanoma
[15] = tested on: HCT-15 colon
[16] = tested on: TK-10 renal
[17] = tested on: M14 melanoma
[18] = tested on: SNB-75 CNS
[19] = tested on: IGROV1 ovarian
[20] = tested on: NCI-H522 lung
[21] = tested on: HOP-62 NSCLC
[22] = tested on: 786-0 renal
[23] = tested on: PC-3 prostate
[24] = tested on: UACC-62 melanoma
[25] = tested on: HCC-2998 colon
[26] = tested on: NCI-H226 lung
[27] = tested on: DU-145 prostate
[28] = tested on: NCI-H460 lung
[29] = tested on: K-562 leukemia
[30] = tested on: ACHN renal
[31] = tested on: SNB-19 CNS
[32] = tested on: HOP-92 NSCLC
[33] = tested on: MALME-3M melanoma
[34] = tested on: SF-539 CNS
[35] = tested on: SK-MEL-5 melanoma
[36] = tested on: SK-MEL-28 melanoma
[37] = tested on: NCI/ADR-RES ovarian
[38] = tested on: A498 renal
[39] = tested on: UO-31 renal
[40] = tested on: A549 NSCLC
[41] = tested on: SW-620 colon
[42] = tested on: MDA-MB-231 breast
[43] = tested on: OVCAR-5 ovarian
[44] = tested on: CCRF-CEM leukemia
[45] = tested on: SR leukemia
[46] = tested on: HS 578T breast
[47] = tested on: U251 CNS
[48] = tested on: MOLT-4 leukemia
[49] = tested on: EKVX NSCLC
[50] = tested on: T-47D breast
[51] = tested on: OVCAR-3 ovarian
[52] = tested on: MDA-MB-435
[53] = tested on: OVCAR-4 ovarian
[54] = tested on: HL-60(TB) leukemia
[55] = tested on: MCF7 breast
[56] = tested on: RPMI-8226 leukemia
[57] = tested on: HCT-116 colon
[58] = tested on: SK-OV-3 ovarian

O=C(CCl)Nc1ccc2c(c1)C(=O)c1ccccc1C2=O
GI50 [1]: 2350 nM
TGI [1]: 6350 nM
GI50 [2]: 3030 nM
TGI [2]: 9340 nM
GI50 [3]: 1590 nM
TGI [3]: 2960 nM
GI50 [4]: 1460 nM
TGI [4]: 3580 nM
GI50 [5]: 1410 nM
TGI [5]: 3010 nM
GI50 [6]: 2420 nM
TGI [6]: 10500 nM
GI50 [7]: 5590 nM
TGI [7]: 13900 nM
GI50 [8]: 1700 nM
TGI [8]: 4150 nM
GI50 [9]: 390 nM
TGI [9]: 994 nM
GI50 [10]: 1790 nM
TGI [10]: 4590 nM
GI50 [11]: 1480 nM
TGI [11]: 3330 nM
GI50 [12]: 2000 nM
TGI [12]: 3780 nM
GI50 [13]: 1660 nM
TGI [13]: 3800 nM
GI50 [14]: 1580 nM
TGI [14]: 3850 nM
GI50 [15]: 730 nM
TGI [15]: 2440 nM
GI50 [16]: 1870 nM
TGI [16]: 3720 nM
GI50 [17]: 1310 nM
TGI [17]: 2980 nM
GI50 [18]: 2190 nM
TGI [18]: 8440 nM
GI50 [19]: 990 nM
TGI [19]: 3230 nM
GI50 [20]: 533 nM
TGI [20]: 1220 nM
GI50 [21]: 2980 nM
TGI [21]: 8500 nM
GI50 [22]: 1670 nM
TGI [22]: 3560 nM
GI50 [23]: 2770 nM
TGI [23]: 11600 nM
GI50 [24]: 1510 nM
TGI [24]: 3170 nM
GI50 [25]: 1860 nM
TGI [25]: 3650 nM
GI50 [26]: 2390 nM
TGI [26]: 6760 nM
GI50 [27]: 1800 nM
TGI [27]: 3360 nM
GI50 [28]: 2130 nM
TGI [28]: 5610 nM
GI50 [29]: 1030 nM
TGI [29]: > 100000 nM
GI50 [30]: 1710 nM
TGI [30]: 3170 nM
GI50 [31]: 2940 nM
TGI [31]: 11500 nM
GI50 [32]: 3720 nM
TGI [32]: 9730 nM
GI50 [33]: 1390 nM
TGI [33]: 3110 nM
GI50 [34]: 2440 nM
TGI [34]: 6490 nM
GI50 [35]: 1160 nM
TGI [35]: 2420 nM
GI50 [36]: 3800 nM
TGI [36]: 9980 nM
GI50 [37]: 2160 nM
TGI [37]: 6560 nM
GI50 [38]: 12200 nM
TGI [38]: 25800 nM
GI50 [39]: 1730 nM
TGI [39]: 3470 nM
GI50 [40]: 8510 nM
TGI [40]: 23500 nM
GI50 [41]: 1430 nM
TGI [41]: 2920 nM
GI50 [42]: 1650 nM
TGI [42]: 4640 nM
GI50 [43]: 2500 nM
TGI [43]: 6890 nM
GI50 [44]: 676 nM
TGI [44]: > 100000 nM
GI50 [45]: 56.7 nM
TGI [45]: > 100000 nM
GI50 [46]: 3560 nM
TGI [46]: 20100 nM
GI50 [47]: 1860 nM
TGI [47]: 4110 nM
GI50 [48]: 2240 nM
TGI [48]: > 100000 nM
GI50 [49]: 2200 nM
TGI [49]: 6350 nM
GI50 [50]: 1110 nM
TGI [50]: 2870 nM
GI50 [51]: 1720 nM
TGI [51]: 3270 nM
GI50 [52]: 2050 nM
TGI [52]: 5460 nM
GI50 [53]: 3480 nM
TGI [53]: 11300 nM
GI50 [54]: 2410 nM
TGI [54]: 5330 nM
GI50 [55]: 1630 nM
TGI [55]: 3640 nM
GI50 [56]: 2040 nM
TGI [56]: 5620 nM
GI50 [57]: 790 nM
TGI [57]: 2970 nM
GI50 [58]: 3710 nM
TGI [58]: 17000 nM
